In patent US6821967B2, “Substituted piperazine derivatives, the preparation thereof and their use as medicaments” (Boehringer Ingelheim Pharma KG, priority 1999, dated 2004) one finds melting point data, which are given here for 19 compounds.

By melting point is commonly meant the temperature, or range, at which the solid turns liquid.

`COCCCNC(=O)C1(CCCCN2CCN(c3ccc4ccccc4n3)CC2)c2ccccc2-c2ccccc21` [Example 93, 9-[4-(4-quinolin-2-yl-piperazin-1-yl)-butyl]-9H-fluorene-9-carboxylic acid-(3-methoxy-propyl)-amide] yielded a melting point of 87 °C. With `COC(=O)CCNC(=O)C1(CCCCN2CCN(c3ccc4ccccc4n3)CC2)c2ccccc2-c2ccccc21` [Example 94, 9-[4-(4-quinolin-2-yl-piperazin-1-yl)-butyl]-9H-fluorene-9-carboxylic acid-(2-methoxycarbonyl-ethyl)-amide] the figure was 110 to 112 °C; with `COC(=O)CNC(=O)C1(CCCCN2CCN(c3ccc4ccccc4n3)CC2)c2ccccc2-c2ccccc21` [Example 95, 9-[4-(4-quinolin-2-yl-piperazin-1-yl)-butyl]-9H-fluorene-9-carboxylic acid-(methoxycarbonyl-methyl)-amide], 53 to 55 °C; with `O=C(O)CCNC(=O)C1(CCCCN2CCN(c3ccc4ccccc4n3)CC2)c2ccccc2-c2ccccc21` [Example 96, 9-[4-(4-quinolin-2-yl-piperazin-1-yl)-butyl]-9H-fluorene-9-carboxylic acid-(2-carboxy-ethyl)-amide], 98 to 100 °C.

As to `O=C(O)CNC(=O)C1(CCCCN2CCN(c3ccc4ccccc4n3)CC2)c2ccccc2-c2ccccc21` [Example 97, 9-[4-(4-quinolin-2-yl-piperazin-1-yl)-butyl]-9H-fluorene-9-carboxylic acid-(carboxy-methyl)-amide], the melting point lay within 127 to 129 °C. With `C[C@@H]1CN(c2ccc3ccccc3n2)C[C@H](C)N1CCCCC1(C(=O)NCc2ccc(F)c(F)c2)c2ccccc2-c2ccccc21` [Example 98, 9-[4-(cis-2,6-dimethyl-4-quinolin-2-yl-piperazin-1-yl)-butyl]-9H-fluorene-9-carboxylic acid-3,4-difluoro-benzylamide] the figure was 162 °C; with `O=C(NCC(F)(F)F)C1(CCCCN2CCN(c3nc4ccccc4s3)CC2)c2ccccc2Oc2ccccc21` [Example 100, 9-[4-(4-benzothiazol-2-yl-piperazin-1-yl)-butyl]-9H-xanthene-9-carboxylic acid-(2,2,2-trifluoro-ethyl)-amide], 58 to 62 °C; with `O=C(NCC(F)(F)F)C1(CCCCN2CCN(c3nc4ccccc4o3)CC2)c2ccccc2Oc2ccccc21` [Example 101, 9-[4-(4-benzoxazol-2-yl-piperazin-1-yl)-butyl]-9H-xanthene-9-carboxylic acid-(2,2,2-trifluoro-ethyl)-amide], 196 to 197 °C. With `Cn1c(N2CCN(CCCCC3(C(=O)NCC(F)(F)F)c4ccccc4Oc4ccccc43)CC2)nc2ccccc21` [Example 102, 9-{4-[4-(1-methyl-1H-benzimidazol-2-yl)-piperazin-1-yl]-butyl}-9H-xanthene-9-carboxylic acid-(2,2,2-trifluoro-ethyl)-amide] the figure was 110 °C; with `O=C(NCC(F)(F)F)C1(CCCCN2CCN(c3ccc4ccccc4n3)CC2)c2ccccc2Oc2ccccc21` [Example 103, 9-[4-(4-quinolin-2-yl-piperazin-1-yl)-butyl]-9H-xanthene-9-carboxylic acid-(2,2,2-trifluoro-ethyl)-amide], 178 °C; with `O=C(NCC(F)(F)F)C1(CCCCN2CCN(c3ccc4c(Cl)cccc4n3)CC2)c2ccccc2Oc2ccccc21` [Example 104, 9-{4-[4-(5-chloro-quinolin-2-yl)-piperazin-1-yl]-butyl}-9H-xanthene-9-carboxylic acid-(2,2,2-trifluoro-ethyl)-amide], 160 °C. With `O=C(NCC(F)(F)F)C1(CCCCN2CCN(c3ccc4cc(Cl)ccc4n3)CC2)c2ccccc2Oc2ccccc21` [Example 105, 9-{4-[4-(6-chloro-quinolin-2-yl)-piperazin-1-yl]-butyl}-9H-xanthene-9-carboxylic acid-(2,2,2-trifluoro-ethyl)-amide] the figure was 165 °C; with `O=C(NCC(F)(F)F)C1(CCCCN2CCN(c3ccc4cccc(Cl)c4n3)CC2)c2ccccc2Oc2ccccc21` [Example 106, 9-{4-[4-(8-chloro-quinolin-2-yl)-piperazin-1-yl]-butyl}-9H-xanthene-9-carboxylic acid-(2,2,2-trifluoro-ethyl)-amide], 68 °C; with `C[C@H]1CN(c2ccc3ccccc3n2)CCN1CCCCC1(C(=O)NCC(F)(F)F)c2ccccc2Oc2ccccc21` [Example 109, 9-{4-[(S)-2-methyl-4-quinolin-2-yl-piperazin-1-yl]-butyl}-9H-xanthene-9-carboxylic acid-(2,2,2-trifluoro-ethyl)-amide], 52 to 53 °C. The compound `C[C@@H]1CN(c2nc3ccccc3s2)C[C@H](C)N1CCCCC1(C(=O)NCC(F)(F)F)c2ccccc2Oc2ccccc21` [Example 110, 9-[4-(4-benzothiazol-2-yl-cis-2,6-dimethyl-piperazin-1-yl)-butyl]-9H-xanthene-9-carboxylic acid-(2,2,2-trifluoro-ethyl)-amide] yielded a melting point of 157 °C.

Take `C[C@@H]1CN(c2ccc3ccccc3n2)C[C@H](C)N1CCCCC1(C(=O)NCC(F)(F)F)c2ccccc2Oc2ccccc21` [Example 111, 9-[4-(cis-2,6-dimethyl-4-quinolin-2-yl-piperazin-1-yl)-butyl]-9H-xanthene-9-carboxylic acid-(2,2,2-trifluoro-ethyl)-amide]: the melting point was determined as 177 °C. With `CCCCNC(=O)C1(CCCCN2CCN(c3ccc4ccccc4n3)CC2)c2ccccc2Oc2ccccc21` [Example 118, 9-[4-(4-quinolin-2-yl-piperazin-1-yl)-butyl]-9H-xanthene-9-carboxylic acid-Butylamide] the figure was 45 to 53 °C; with `O=C(N1CCOCC1)C1(CCCCN2CCN(c3ccc4ccccc4n3)CC2)c2ccccc2Oc2ccccc21` [Example 120, 1-morpholin-4-yl-1-{9-[4-(4-quinolin-2-yl-piperazin-1-yl)-butyl]-9H-xanthene-9-yl}-methanone], 48 to 58 °C. With `O=C(NCC(F)(F)F)C1(CCCN2CCN(c3nc4ccccc4s3)CC2)c2ccccc2-c2ccccc21` [Example 122, 9-[3-(4-benzothiazol-2-yl-piperazin-1-yl)-propyl]-9H-fluorene-9-carboxylic acid-(2,2,2-trifluoro-ethyl)-amide] the figure was 68 °C.
